Results: ChEMBL document CHEMBL1201862, “PubChem BioAssay data set” (2004)
Active and inactive are the calls of the source.

Test system: not listed separately
Test: intracellular Trypanosoma cruzi inhibitors in host cells – cell-based, plate reader, cherry-pick samples, set 3, dose response (AID 651818);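 further: compounds incubated with infected cells for about four days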
Format: functional
Conditions: not given

Structure (SMILES)	AC50
Cc1ccc(S(=O)(=O)Nc2ccc3c(c2)CC(=O)N([C@@H](C)CO)C[C@@H](C)[C@@H](CN(C)Cc2ccc(C(F)(F)F)cc2)O3)cc1	2.03 µM (active)
C[C@@H]1CN([C@H](C)CO)C(=O)Cc2cc(NC(=O)Cc3ccccc3)ccc2O[C@@H]1CN(C)Cc1ccc(Cl)c(Cl)c1	2.51 µM (active)
C[C@H]1CN([C@@H](C)CO)C(=O)Cc2cc(NC(=O)c3ccncc3)ccc2O[C@H]1CN(C)Cc1ccc(-c2ccccc2)cc1	1.63 µM (active)
C[C@H]1CN([C@@H](C)CO)C(=O)Cc2cc(NC(=O)Cc3cn(C)c4ccccc34)ccc2O[C@H]1CN(C)Cc1ccc(C(F)(F)F)cc1	1.81 µM (active)
C[C@H]1CN([C@@H](C)CO)C(=O)c2cccc(NC(=O)Nc3cccc4ccccc34)c2O[C@H]1CN(C)Cc1ccc(C(=O)Nc2ccccc2N)cc1	3.59 µM (active)
C[C@H](CO)N1C[C@H](C)[C@H](CN(C)S(=O)(=O)c2ccccc2)Oc2ccc(NC(=O)Nc3ccc(C(F)(F)F)cc3)cc2C1=O	1.62 µM (active)
C[C@@H]1CN([C@H](C)CO)C(=O)Cc2cc(N(C)C)ccc2O[C@H]1CN(C)Cc1ccc2c(c1)OCO2	6.22 µM (active)
C[C@H]1CN([C@@H](C)CO)C(=O)Cc2cc(NC(=O)C3CC3)ccc2O[C@@H]1CN(C)Cc1ccc(C(=O)Nc2ccccc2N)cc1	3.59 µM (active)

Biological target: T1, Short transient receptor potential channel 4 (Mus musculus, UniProt Q9QUQ5)
T1 sequence (Q9QUQ5 whole entry): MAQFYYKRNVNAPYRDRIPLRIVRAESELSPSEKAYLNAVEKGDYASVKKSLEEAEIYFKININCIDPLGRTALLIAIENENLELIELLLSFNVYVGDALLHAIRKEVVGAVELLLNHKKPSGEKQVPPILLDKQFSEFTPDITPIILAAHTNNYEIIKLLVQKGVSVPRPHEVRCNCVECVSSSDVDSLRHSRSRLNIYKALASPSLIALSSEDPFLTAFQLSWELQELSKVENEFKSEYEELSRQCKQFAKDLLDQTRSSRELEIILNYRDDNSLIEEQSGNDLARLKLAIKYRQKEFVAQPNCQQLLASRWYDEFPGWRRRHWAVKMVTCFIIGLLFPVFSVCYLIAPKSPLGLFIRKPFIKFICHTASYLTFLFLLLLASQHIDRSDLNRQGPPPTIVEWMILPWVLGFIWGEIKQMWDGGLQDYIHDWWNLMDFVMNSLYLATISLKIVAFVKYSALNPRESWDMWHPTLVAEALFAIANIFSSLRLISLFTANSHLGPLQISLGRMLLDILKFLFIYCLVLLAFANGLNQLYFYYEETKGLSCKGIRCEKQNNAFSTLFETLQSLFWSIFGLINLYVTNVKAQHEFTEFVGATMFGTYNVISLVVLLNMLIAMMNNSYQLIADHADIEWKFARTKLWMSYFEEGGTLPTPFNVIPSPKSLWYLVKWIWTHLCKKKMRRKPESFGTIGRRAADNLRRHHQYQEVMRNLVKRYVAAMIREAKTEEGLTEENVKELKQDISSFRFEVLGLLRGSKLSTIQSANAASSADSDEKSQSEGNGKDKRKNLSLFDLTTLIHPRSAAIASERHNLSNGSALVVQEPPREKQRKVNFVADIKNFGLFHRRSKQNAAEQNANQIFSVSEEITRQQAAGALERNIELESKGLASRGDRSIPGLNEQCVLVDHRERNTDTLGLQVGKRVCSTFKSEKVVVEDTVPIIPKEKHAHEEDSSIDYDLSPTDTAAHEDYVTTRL
Test: mouse TRPC4 channel activators, dose response, cell-based, HEK293 TRPC4/mu-opioid, Fluo-4 calcium (AID 434937)
Format: functional
Conditions: not given

Structure (SMILES)	EC50
COc1ccc(C(CNC(=O)c2cccc(Br)c2)N2CCCC2)cc1 (stereo not given)	1.68 µM (active)
CCN1CCN(c2ccc(S(=O)(=O)N3CCOCC3)cc2NC(=O)C(C)Oc2cccc(Cl)c2)CC1 (stereo not given)	5.96 µM (active)
COc1ccc(C(CNC(=O)CN2C(=O)NC3(CCCC3)C2=O)N(C)C)cc1 (stereo not given)	3.76 µM (active)
O=C(NCCc1ccccn1)C(F)(F)C(F)(F)C(F)(F)C(F)(F)C(F)(F)C(F)F	4.73 µM (active)
Cc1ccc(/C=N\NC(=O)C2COc3cc4ccccc4cc3O2)o1 (stereo not given)	1.88 µM (active)

Biological target: T2, RNA-binding protein pos-1 (Caenorhabditis elegans, UniProt G5EF15)
T2 sequence (G5EF15 whole entry): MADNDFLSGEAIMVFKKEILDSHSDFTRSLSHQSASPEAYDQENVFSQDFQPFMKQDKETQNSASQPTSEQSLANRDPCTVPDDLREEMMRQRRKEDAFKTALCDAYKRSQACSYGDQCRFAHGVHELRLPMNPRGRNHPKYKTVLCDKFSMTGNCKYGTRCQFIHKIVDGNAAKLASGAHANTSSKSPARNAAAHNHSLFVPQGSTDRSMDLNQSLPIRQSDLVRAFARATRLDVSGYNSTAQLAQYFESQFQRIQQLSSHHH
Test: inhibitors of POS-1/mex-3 RNA binding, dose response, biochemical, fluorescence polarization (AID 1964);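 further: purified POS-1 fused to maltose binding protein made in E. coli; potency of compounds blocking POS-1 binding to fluorescent RNA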
Conditions: not given

Structure (SMILES)	EC50
Cc1cc(/C=C2\C(=O)NC(=O)N(c3ccccc3)C2=O)c(C)n1-c1ccc(C(=O)O)c(Cl)c1	> 300 µM (not active)

Test system: not listed separately
Test: Luminescence Cell-Based Dose Confirmation HTS to Identify Inhibitors of Platelet Dense Granule Release. [Related pubchem assays: 1663 (Primary HTS), 1678 (Summary of Project)]
Format: functional
Conditions: not given

Structure (SMILES)	EC50
O=C(NCCc1ccccn1)C(F)(F)C(F)(F)C(F)(F)C(F)(F)C(F)(F)C(F)F	> 112 µM (not active)

Test system: not listed separately
Test: Luminescence Cell-Based Dose Retest to Confirm Inhibitors of Cancer Stem Cells. [Related pubchem assays (depositor defined):AID2717, AID2721]
Format: functional
Conditions: Homo sapiens

Structure (SMILES)	AC50
Oc1ccc(C[C@@H]2CN=C(S)N2CCCCC2CCCCC2)cc1	5.41 µM (active)

Biological target: T3, Zinc finger protein mex-5 (Caenorhabditis elegans, UniProt Q9XUB2)
T3 sequence (Q9XUB2 whole entry): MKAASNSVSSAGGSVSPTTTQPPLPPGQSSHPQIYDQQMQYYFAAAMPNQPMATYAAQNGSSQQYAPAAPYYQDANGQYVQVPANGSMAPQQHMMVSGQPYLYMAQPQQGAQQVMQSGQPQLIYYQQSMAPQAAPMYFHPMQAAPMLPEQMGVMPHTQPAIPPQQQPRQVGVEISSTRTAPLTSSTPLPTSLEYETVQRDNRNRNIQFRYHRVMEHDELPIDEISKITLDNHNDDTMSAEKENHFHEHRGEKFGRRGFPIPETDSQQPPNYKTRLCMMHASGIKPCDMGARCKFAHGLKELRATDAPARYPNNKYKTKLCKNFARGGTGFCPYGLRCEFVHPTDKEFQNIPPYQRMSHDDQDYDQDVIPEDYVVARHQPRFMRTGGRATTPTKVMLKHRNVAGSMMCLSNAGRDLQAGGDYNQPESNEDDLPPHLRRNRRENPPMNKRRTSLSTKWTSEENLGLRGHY
Test: MEX-5/TCR-2 RNA interaction inhibitors, dose response, biochemical, C. elegans, fluorescence polarization (AID 1960)
Conditions: not given

Structure (SMILES)	EC50
Cc1cc(/C=C2\C(=O)NC(=O)N(c3ccccc3)C2=O)c(C)n1-c1ccc(C(=O)O)c(Cl)c1	> 300 µM (not active)

Test system: not listed separately
Test: miR-122 activators in hepatoma reporter cells, dose response, cell-based, Huh7 psiCHECK-miR122, Renilla luciferase, cherry-picked (AID 651956);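 further: huh7 hepatoma cells stably carrying a psiCHECK-2 miR-122 sensor plasmid; renilla luciferase signal reporting endogenous miR-122 activity after 48 h compound exposure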
Format: functional
Conditions: not given

Structure (SMILES)	AC50
COc1ccc(C(=O)C2CCCN(Cc3cccn3-c3ccccn3)C2)c(OC)c1 (stereo not given)	21.8 µM (active)

Biological target: T4, Calpain-2 catalytic subunit (Sus scrofa, UniProt P43367)
T4 sequence (P43367 whole entry): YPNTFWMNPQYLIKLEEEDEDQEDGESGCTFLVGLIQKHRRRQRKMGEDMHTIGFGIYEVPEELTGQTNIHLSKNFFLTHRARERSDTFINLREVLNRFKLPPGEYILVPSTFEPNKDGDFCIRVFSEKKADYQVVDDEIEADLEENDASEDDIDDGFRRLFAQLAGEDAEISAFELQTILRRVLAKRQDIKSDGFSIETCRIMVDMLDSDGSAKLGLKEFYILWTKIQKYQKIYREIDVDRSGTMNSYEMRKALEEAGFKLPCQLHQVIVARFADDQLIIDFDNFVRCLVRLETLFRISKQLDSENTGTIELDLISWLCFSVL
Test: pig calpain II inhibitor potency, dose response, biochemical, fluorogenic peptide substrate (AID 1420)
Format: functional
Conditions: not given

Structure (SMILES)	IC50
COc1ccc(C2=Nn3c(nnc3-c3ccco3)SC2)cc1	9.61 µM (not active)
Oc1ccc(C[C@@H]2CN=C(S)N2CCCCC2CCCCC2)cc1	12.2 µM (not active)
O=C1c2ccc(Br)cc2C(=O)N1c1ccc(Cc2ccncc2)cc1	4.86 µM (not active)
Cn1c(NCc2ccco2)nc2c1c(=O)n(Cc1ccc(Cl)c(Cl)c1)c(=O)n2C	4.09 µM (not active)
Cc1c(O)ccc(C(=O)CN2C(=O)c3ccccc3C2=O)c1O	7.96 µM (not active)
O=C1c2ccccc2C(=O)N1CCCCCc1nc(-c2ccccc2)no1	3.34 µM (not active)
COc1ccc(C(=O)Nc2cc(C)ccc2NC(=O)COc2ccccc2)cc1	1.51 µM (not active)
COc1ccc(C(=O)N2c3cc4c(cc3C(C)=CC2(C)C)OCO4)cc1	6.36 µM (not active)

Biological target: Luciferin 4-monooxygenase (Photinus pyralis, UniProt P08659)
Sequence (P08659 whole entry): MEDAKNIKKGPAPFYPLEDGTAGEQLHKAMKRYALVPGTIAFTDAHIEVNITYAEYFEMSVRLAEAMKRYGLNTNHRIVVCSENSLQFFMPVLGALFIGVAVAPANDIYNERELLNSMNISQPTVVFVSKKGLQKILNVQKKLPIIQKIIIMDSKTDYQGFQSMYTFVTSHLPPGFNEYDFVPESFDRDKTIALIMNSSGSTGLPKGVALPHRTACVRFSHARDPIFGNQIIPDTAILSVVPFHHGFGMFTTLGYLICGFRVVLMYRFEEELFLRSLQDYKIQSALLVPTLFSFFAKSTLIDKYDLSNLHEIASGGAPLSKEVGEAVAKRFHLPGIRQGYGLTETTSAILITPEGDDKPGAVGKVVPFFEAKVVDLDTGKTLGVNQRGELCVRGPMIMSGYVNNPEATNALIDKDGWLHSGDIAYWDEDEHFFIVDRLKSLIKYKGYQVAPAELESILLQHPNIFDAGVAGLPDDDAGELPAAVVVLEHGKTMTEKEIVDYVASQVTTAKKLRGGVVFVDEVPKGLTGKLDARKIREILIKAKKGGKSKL
Test: firefly luciferase enzyme inhibitors, dose response, biochemical, luminescence (AID 1891)
Conditions: not given

Structure (SMILES)	EC50
O=C(NCCc1ccccn1)C(F)(F)C(F)(F)C(F)(F)C(F)(F)C(F)(F)C(F)F	> 112 µM (not active)

Biological target: Genome polyprotein (dengue virus type 2, UniProt P29990)
Sequence (P29990 2492-3391 limits assumed): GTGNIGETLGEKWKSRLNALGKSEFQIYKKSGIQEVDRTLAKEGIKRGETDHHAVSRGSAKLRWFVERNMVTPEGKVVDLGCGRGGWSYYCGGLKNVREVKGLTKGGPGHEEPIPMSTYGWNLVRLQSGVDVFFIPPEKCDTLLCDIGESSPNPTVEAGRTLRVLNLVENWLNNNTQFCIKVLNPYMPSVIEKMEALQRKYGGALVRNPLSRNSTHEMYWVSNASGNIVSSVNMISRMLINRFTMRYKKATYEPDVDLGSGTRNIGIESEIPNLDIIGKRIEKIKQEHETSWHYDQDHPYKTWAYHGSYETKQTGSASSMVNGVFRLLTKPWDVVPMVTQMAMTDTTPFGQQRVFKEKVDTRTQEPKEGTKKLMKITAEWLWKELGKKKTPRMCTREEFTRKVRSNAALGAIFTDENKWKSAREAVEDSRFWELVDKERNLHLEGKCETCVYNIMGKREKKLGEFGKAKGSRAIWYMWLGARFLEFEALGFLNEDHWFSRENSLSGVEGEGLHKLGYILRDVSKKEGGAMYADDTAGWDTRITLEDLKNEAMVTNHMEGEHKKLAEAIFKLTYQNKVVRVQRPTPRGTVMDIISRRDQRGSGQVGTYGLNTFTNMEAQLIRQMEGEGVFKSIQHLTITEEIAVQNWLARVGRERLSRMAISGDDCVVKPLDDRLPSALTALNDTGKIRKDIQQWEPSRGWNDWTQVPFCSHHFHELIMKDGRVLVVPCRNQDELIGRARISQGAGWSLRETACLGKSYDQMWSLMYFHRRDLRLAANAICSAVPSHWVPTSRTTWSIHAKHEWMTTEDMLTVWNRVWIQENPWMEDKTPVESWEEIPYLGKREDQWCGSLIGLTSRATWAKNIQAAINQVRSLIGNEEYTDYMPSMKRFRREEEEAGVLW
Test: Dengue-2 NS5 methyltransferase inhibitors, primary screen, biochemical, confirmation dose response (AID 588689)
Format: functional
Conditions: not given

Structure (SMILES)	IC50
Cc1cc(/C=C2\C(=O)NC(=O)N(c3ccccc3)C2=O)c(C)n1-c1ccc(C(=O)O)c(Cl)c1	63.7 µM (active)
Cc1ccc(S(=O)(=O)Oc2ccccc2C=C2C(=O)NC(=O)NC2=O)cc1	36.8 µM (active)
O=C(O)CN1C(=O)/C(=C\c2ccccc2OCc2ccccc2)SC1=S	35.8 µM (active)

Biological target: T5, Aminopeptidase N (Plasmodium falciparum FcB1/Columbia, UniProt O96935)
T5 sequence (O96935 whole entry): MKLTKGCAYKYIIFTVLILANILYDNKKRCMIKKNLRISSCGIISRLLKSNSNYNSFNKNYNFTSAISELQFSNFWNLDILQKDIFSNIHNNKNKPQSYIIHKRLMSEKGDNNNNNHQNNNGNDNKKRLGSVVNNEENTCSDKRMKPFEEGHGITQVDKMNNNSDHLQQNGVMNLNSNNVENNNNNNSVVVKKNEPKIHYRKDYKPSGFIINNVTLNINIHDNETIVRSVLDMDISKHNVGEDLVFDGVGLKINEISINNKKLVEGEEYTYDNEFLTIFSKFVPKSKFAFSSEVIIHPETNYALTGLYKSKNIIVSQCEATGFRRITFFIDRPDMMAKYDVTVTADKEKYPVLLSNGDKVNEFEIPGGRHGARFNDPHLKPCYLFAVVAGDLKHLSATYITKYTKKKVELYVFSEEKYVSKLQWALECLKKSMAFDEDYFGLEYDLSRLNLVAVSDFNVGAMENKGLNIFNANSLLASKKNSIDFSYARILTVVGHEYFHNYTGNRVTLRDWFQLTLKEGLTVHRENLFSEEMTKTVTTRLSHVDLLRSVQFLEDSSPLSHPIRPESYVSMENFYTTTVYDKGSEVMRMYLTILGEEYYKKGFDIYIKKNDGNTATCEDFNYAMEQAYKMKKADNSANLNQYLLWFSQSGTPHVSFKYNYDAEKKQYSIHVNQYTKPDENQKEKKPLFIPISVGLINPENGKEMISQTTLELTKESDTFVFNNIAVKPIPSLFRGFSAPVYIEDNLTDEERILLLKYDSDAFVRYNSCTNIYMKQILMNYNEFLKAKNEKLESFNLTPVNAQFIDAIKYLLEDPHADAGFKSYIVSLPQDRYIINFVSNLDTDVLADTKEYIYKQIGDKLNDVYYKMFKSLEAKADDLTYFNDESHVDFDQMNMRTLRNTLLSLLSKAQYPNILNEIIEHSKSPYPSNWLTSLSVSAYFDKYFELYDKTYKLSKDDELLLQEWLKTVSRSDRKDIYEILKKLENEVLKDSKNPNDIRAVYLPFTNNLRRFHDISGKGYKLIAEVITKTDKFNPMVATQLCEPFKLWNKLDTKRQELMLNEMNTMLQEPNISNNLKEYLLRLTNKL
Test: P. falciparum M1AAP inhibitors, biochemical, fluorogenic H-Leu-NHMec substrate, 1536-well (AID 1445)
Design: species or system Plasmodium falciparum 3D7, 3D7
Conditions: not given

Structure (SMILES)	IC50
COc1cc(OC)c(NS(=O)(=O)c2ccc(Cl)c(C(=O)OC(C)C(=O)N3CCCC3)c2)cc1Cl (stereo not given)	38.6 µM (active)
CCOC(=O)NN1C(=O)c2ccccc2NC12CCCC2	32.6 µM (active)
O=C(NC1CCCCC1)NC1CCN(C(=S)NCc2ccco2)CC1	66.3 µM (active)
CCOC(=O)C(=CN=C(N)Nc1nc2ccccc2o1)C(=O)OCC	79.2 µM (active)
CCOc1cc(/C=N/NC2=NC(=O)C(CC(=O)O)S2)ccc1OS(=O)(=O)c1ccc(C)cc1 (stereo not given)	47.8 µM (active)
